Results published in patent US20220202964A1, “HEPARANASE COMPOUNDS AND METHODS OF USE” (University of Florida Research Foundation, Incorporated, priority 2019, published 2022).

Biological target: T1, β-Glucuronidase (Homo sapiens, UniProt P08236)
T1 sequence (P08236 23-651): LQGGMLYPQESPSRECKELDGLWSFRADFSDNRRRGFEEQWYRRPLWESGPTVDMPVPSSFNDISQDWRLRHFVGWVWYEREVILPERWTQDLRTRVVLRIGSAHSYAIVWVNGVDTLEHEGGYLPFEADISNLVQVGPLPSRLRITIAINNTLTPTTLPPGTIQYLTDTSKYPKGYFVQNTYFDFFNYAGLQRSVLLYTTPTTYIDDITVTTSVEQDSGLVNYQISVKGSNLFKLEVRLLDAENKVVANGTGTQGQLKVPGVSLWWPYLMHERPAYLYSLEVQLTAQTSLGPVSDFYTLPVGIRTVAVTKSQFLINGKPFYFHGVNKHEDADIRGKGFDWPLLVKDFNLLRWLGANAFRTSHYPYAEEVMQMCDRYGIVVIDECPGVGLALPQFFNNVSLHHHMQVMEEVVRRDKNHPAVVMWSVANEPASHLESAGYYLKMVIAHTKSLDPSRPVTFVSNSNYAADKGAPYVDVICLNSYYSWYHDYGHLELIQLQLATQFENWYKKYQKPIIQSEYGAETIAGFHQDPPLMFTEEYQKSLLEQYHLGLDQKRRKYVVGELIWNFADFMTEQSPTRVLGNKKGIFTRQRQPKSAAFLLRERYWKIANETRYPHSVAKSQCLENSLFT
Experiment: Fluorescence response to biological species: β-glucuronidase
Format: biochemical
Conditions: 5 μM; β-glucuronidase 5 μg; 4 h, 37° C.
Protocol: 5 μM compound 1 (HADP) was incubated with various biological species at the indicated amount/concentration in 96-well microplate. Cysteine (5 mM), Glutathione (5 mM), H2O2 (100 μM), Esterase, Chondroitinase ABC, Hyaluronidase, Lysozyme, β-Glucuronidase, β-Glucosidase (5 μg each) and heparanase (2 μg). For Chondroitinase ABC and Hyaluronidase, 50 μg was also tested. Each sample was performed in triplicates. Then the microplate was sealed with sealing film and incubated at 37° C. for 4 hours. Fluorescence intensity was recorded on Spectramax M5 Multimode plate reader (Molecular Devices, USA). λex/em=365 nm/455 nm.

## Cc1cc(=O)oc2c(F)c(O[C@@H]3O[C@H](C(=O)O)[C@@H](O[C@H]4O[C@H](CO)[C@@H](O)[C@H](O)[C@H]4NS(=O)(=O)O)[C@H](O)[C@H]3O)c(F)cc12 [Compound 1]
  fluorescence response: did not trigger fluorescence response
